Where a SMILES comes first, the peptide text is derived from it.
Key:
L. crispatus and E. coli = assay: Therapeutic Effect Protocol: L. crispatus / E. coli co-culture, ratio after 36 hours; format: cell-based, Lactobacillus crispatus; E. coli; conditions: for Therapeutic Efficacy Results (Lactobacillus/E. coli) 0.10%: nitrogen compound 0.10 wt/vol % with 1.0 wt/vol % α methyl-D glucoside (10:1); for Therapeutic Efficacy Results (Lactobacillus/E. coli) 0.10% / Therapeutic Efficacy Results (Lactobacillus/E. coli) 0.50% / Therapeutic Efficacy Results (Lactobacillus/E. coli) 1.00%: 36 hours anaerobic co-culture, 37° C.; for Therapeutic Efficacy Results (Lactobacillus/E. coli) 0.50%: nitrogen compound 0.50 wt/vol % with 1.0 wt/vol % α methyl-D glucoside (2:1); for Therapeutic Efficacy Results (Lactobacillus/E. coli) 1.00%: nitrogen compound 1.00 wt/vol % with 1.0 wt/vol % α methyl-D glucoside (1:1); for Therapeutic effect (ratio of Lactobacillus to E. coli greater than 2) at each concentration tested / Therapeutic effect when ratio α methyl-D glucoside : nitrogen compound is less than 2:1 (1:1) / Therapeutic effect when ratio α methyl-D glucoside : nitrogen compound is at least about 2:1, but not at 1:1 / Therapeutic effect at ratio 2:1 and 10:1, but not at 1:1: with α methyl-D glucoside; for Therapeutic effect (ratio of Lactobacillus to E. coli greater than 2) at each concentration tested: nitrogen compound 1 wt/vol %, 0.5 wt/vol % and 0.1 wt/vol %; for Therapeutic effect when ratio α methyl-D glucoside : nitrogen compound is less than 2:1 (1:1): ratio 1:1; for Therapeutic effect when ratio α methyl-D glucoside : nitrogen compound is at least about 2:1, but not at 1:1: ratio at least about 2:1, not 1:1; for Therapeutic effect at ratio 2:1 and 10:1, but not at 1:1: ratios 2:1 and 10:1, not 1:1
Procedure: As used herein the term “therapeutic effect” refers to the ability of the compositions and formulations of the present invention to stimulate the growth of Lactobacillus relative E. coli measured according to the Therapeutic Effect Protocol described below. Generally, therapeutic effect is expressed as a ratio of Lactobacillus to E. coli and is desirably greater than about 2, more preferably greater than about 20 and more desirably greater than about 100.
The data in Table 1 was tested according to the Therapeutic Effect Protocol as described further herein. The nitrogen compounds were tested for their therapeutic efficacy at three different concentrations when combined with α methyl-D glucoside (1% wt/vol %). The concentrations of the nitrogen containing compounds that were tested were 1% wt/vol %, 0.5% wt/vol %, and 0.1% wt/vol %.
Colonies of L. crispatus and E. coli were prepared as follows. A colony of L. crispatus was transferred to 7 ml de Man, Rogosa & Sharpe (MRS) broth and incubated anaerobically (using BD GasPak EZ anaerobe container system with indicator) at 37° C. without shaking for 18-20 hours. A colony of E. coli was transferred to 5 ml Tryptic Soy Broth (TSB) and incubated aerobically (shaking at 100 rpm) at 37° C. for 18-20 hours.
Colonies were then inoculated as follows. Bacterial cultures were gently vortexed and 1 mL of each culture was transferred to a corresponding 2.0 mL micro-centrifuge tube and then centrifuged for two minutes at 14,500 rpm. The cultural supernatant was removed and the cell pellet was re-suspended in 1 mL of 0.95% (wt/vol %) saline. […] For L. crispatus, the pellet was re-suspended in 1 mL of 0.95% saline to achieve ˜10^7-10^8 cfu/mL. For E. coli, the pellet was re-suspended in 1 mL of 0.95% saline to achieve ˜10^8-10^9 cfu/mL.
Media were prepared as follows.
(§1) All of the ingredients in Table 2 were combined and the pH was adjusted to 6.5. […] To evaluate the effect of various nitrogen containing therapeutic agents on the growth of bacteria, the LAPT-g media, prepared as described above, was supplemented with various nitrogen containing compound therapeutic agents to a final test concentration between 0.1 and 1.0%. As initial screening measures, solubility and initial pH of each composition were checked. If a specific composition was insoluble (as detected by visual indication of precipitates or turbidity), then no further therapeutic efficacy testing was undertaken on that composition. Additionally, if the initial pH of the composition was below 5.5 (“Low”) or was above 6.5 (“High”), then no further therapeutic efficacy testing was undertaken on that composition.
Five milliliters (5 mL) of each medium was transferred to a test tube in duplicates for subsequent inoculation. A master mixture of L. crispatus and E. coli, prepared as described above, was prepared in 1,000:1 ratio. Each (5 ml) test tube was inoculated with the master mixture to give 10^5-10^6 total CFU L. crispatus and 100-1,000 total CFU E. coli per tube.
To establish a negative control, one tube was vortexed and 100 μL was removed to determine the initial cell concentrations by serial dilutions and plating (2 plates per dilution). L. crispatus is selected on MRS agar plates incubated anaerobically at 37° C. for two days. E. coli is selected on TSA plates incubated aerobically at 37° C. for one day. The co-cultures were incubated in an anaerobic container with BD GasPaks at 37° C. for 36 hours.
The effect of the α methyl-D glucoside and the nitrogen containing compound therapeutic agents on the ratio of L. crispatus to E. coli was measured 36 hours after inoculation and a final pH of the test solutions was recorded. The co-culture tube was vortexed and 100 μL was removed to determine the final cell concentrations by serial dilutions and plating (2 plates per dilution). L. crispatus is selected on MRS agar plates incubated anaerobically at 37° C. for two days.

[1] = Initial pH screening of the composition; format: physicochemical; conditions: for I pH (initial pH), 0.10%: nitrogen compound 0.10 wt/vol % with 1.0 wt/vol % α methyl-D glucoside in medium; for I pH (initial pH), 0.50%: nitrogen compound 0.50 wt/vol % with 1.0 wt/vol % α methyl-D glucoside in medium; for I pH (initial pH), 1.00%: nitrogen compound 1.00 wt/vol % with 1.0 wt/vol % α methyl-D glucoside in medium
Description: Each composition in Table 1 went through initial screening measures of solubility and initial pH (“I pH”). […] When a specific concentration of a nitrogen containing compound was insoluble, the initial and final pH (“F pH”) of the combined composition was not measured and accordingly are each marked as “NM.” Additionally, initial pH of the composition was checked as a screening measure. The initial pH was marked as either Low (“L”), High (“H”), or Pass (“P”). A Low initial pH corresponds to an initial pH being less than 5.5, a High initial pH corresponds to an initial pH being greater than 6.5, and a Pass initial pH corresponds to the pH being at or between 5.5-6.5. […] As part of the Therapeutic Effect Protocol, a final pH was also measured after the compositions that were tested against the Lactobacillus and E. coli.
as §1

Compound | Therapeutic Efficacy Results (Lactobacillus/E. coli) 0.10% (L. crispatus and E. coli) | Therapeutic Efficacy Results (Lactobacillus/E. coli) 0.50% (L. crispatus and E. coli) | Therapeutic Efficacy Results (Lactobacillus/E. coli) 1.00% (L. crispatus and E. coli) | Therapeutic effect (ratio of Lactobacillus to E. coli greater than 2) at each concentration tested (L. crispatus and E. coli) | Therapeutic effect when ratio α methyl-D glucoside : nitrogen compound is less than 2:1 (1:1) (L. crispatus and E. coli) | I pH (initial pH), 0.10% [1] | I pH (initial pH), 0.50% [1] | I pH (initial pH), 1.00% [1] | Therapeutic effect when ratio α methyl-D glucoside : nitrogen compound is at least about 2:1, but not at 1:1 (L. crispatus and E. coli) | Therapeutic effect at ratio 2:1 and 10:1, but not at 1:1 (L. crispatus and E. coli)
C[C@@H](N)C(=O)O [D-Alanine] | 1.10E+06 | >1.30E+04 | 60 | provided a therapeutic effect | provided a therapeutic effect | P (a Pass initial pH corresponds to the pH being at or between 5.5-6.5) | P (a Pass initial pH corresponds to the pH being at or between 5.5-6.5) | P (a Pass initial pH corresponds to the pH being at or between 5.5-6.5) |  | 
NC(=O)C[C@@H](N)C(=O)O [D-Asparagine] | >3410 | 6.00E+06 | 72 | provided a therapeutic effect | provided a therapeutic effect | P (a Pass initial pH corresponds to the pH being at or between 5.5-6.5) | P (a Pass initial pH corresponds to the pH being at or between 5.5-6.5) | P (a Pass initial pH corresponds to the pH being at or between 5.5-6.5) |  | 
Cl.N[C@H]1C(O)O[C@H](CO)[C@H](O)[C@@H]1O (stereo partly drawn) [D-Galactosamine HCL] | 6.72 | >1220 | 1.29 |  |  | P (a Pass initial pH corresponds to the pH being at or between 5.5-6.5) | P (a Pass initial pH corresponds to the pH being at or between 5.5-6.5) | P (a Pass initial pH corresponds to the pH being at or between 5.5-6.5) | provided a therapeutic effect | provided a therapeutic effect
Cl.N[C@H]1C(O)O[C@H](CO)[C@@H](O)[C@@H]1O (stereo partly drawn) [D-Glucosamine HCL] | 77.8 | 6.00E+06 | 454 | provided a therapeutic effect | provided a therapeutic effect | P (a Pass initial pH corresponds to the pH being at or between 5.5-6.5) | P (a Pass initial pH corresponds to the pH being at or between 5.5-6.5) | P (a Pass initial pH corresponds to the pH being at or between 5.5-6.5) |  | 
NC(=O)[C@H]1O[C@@H](O)[C@H](O)[C@@H](O)[C@@H]1O [D-glucoronamide] | >122 | 6.84E+03 | 1.6 |  |  | P (a Pass initial pH corresponds to the pH being at or between 5.5-6.5) | P (a Pass initial pH corresponds to the pH being at or between 5.5-6.5) | P (a Pass initial pH corresponds to the pH being at or between 5.5-6.5) | provided a therapeutic effect | provided a therapeutic effect
Cl.N[C@@H]1C(O)O[C@H](CO)[C@@H](O)[C@@H]1O (stereo partly drawn) [D-mannosamine HCl] | 0.202 | 84 | 0.96 |  |  | P (a Pass initial pH corresponds to the pH being at or between 5.5-6.5) | P (a Pass initial pH corresponds to the pH being at or between 5.5-6.5) | P (a Pass initial pH corresponds to the pH being at or between 5.5-6.5) | provided a therapeutic effect | 
CC(O)C(N)=O (stereo not drawn) [DL Lactamide] | 7.52 | >1330 | 0.8 |  |  | P (a Pass initial pH corresponds to the pH being at or between 5.5-6.5) | P (a Pass initial pH corresponds to the pH being at or between 5.5-6.5) | P (a Pass initial pH corresponds to the pH being at or between 5.5-6.5) | provided a therapeutic effect | provided a therapeutic effect
NCC(=O)N[C@@H](CC(N)=O)C(=O)O [Gly-Asn] (H-Gly-Asn-OH) | 108 | >1.58E+04 | 1.3 |  |  | P (a Pass initial pH corresponds to the pH being at or between 5.5-6.5) | P (a Pass initial pH corresponds to the pH being at or between 5.5-6.5) | P (a Pass initial pH corresponds to the pH being at or between 5.5-6.5) | provided a therapeutic effect | provided a therapeutic effect
NCC(=O)N[C@@H](CCC(N)=O)C(=O)O.O [Gly-Gln] (H-Gly-Gln-OH) | 8.57 | >189 | 0.38 |  |  | P (a Pass initial pH corresponds to the pH being at or between 5.5-6.5) | P (a Pass initial pH corresponds to the pH being at or between 5.5-6.5) | P (a Pass initial pH corresponds to the pH being at or between 5.5-6.5) | provided a therapeutic effect | provided a therapeutic effect
NCC(=O)N[C@@H](CCC(=O)O)C(=O)O [Gly-Glu] (H-Gly-Glu-OH) | 6.83 |  |  |  |  | P (a Pass initial pH corresponds to the pH being at or between 5.5-6.5) | L (A Low initial pH corresponds to an initial pH being less than 5.5) | L (A Low initial pH corresponds to an initial pH being less than 5.5) | provided a therapeutic effect | 
